Columns and labels:
[1] = system: colon cancer cell lines RKO and HCT116; assay: FMCA primary screening at 10 μM; format: cell-based, human; details: 10 μM drug concentration; both cell lines; hit criterion SI <40 %
Experimental: For primary screening, the colon cancer cell lines HCT 116 and RKO, obtained from American Type Culture Collection (ATCC; Rockville, MD, USA), were cultured in McCoy’s 5a medium supplemented with 10 % heat-inactivated fetal bovine serum, 2 mM L-glutamine, 100 μg/ml streptomycin and 100 U/ml penicillin (all from Sigma-Aldrich St. Louis, MO, USA).
The Pharmakon 1600 library (Microsource Inc, MO, USA) consists of 1,600 annotated compounds previously used in the clinical setting. The library was delivered in […] each containing 80 compounds at a concentration of 10 mM dissolved in DMSO. For the primary screening, aliquots of the DMSO solutions were transferred to 384-well Labcyte source plates (Labcyte Inc, CA, USA) using a Biomek 2000 and stored at room temperature in containers under nitrogen atmosphere. These source plates were subsequently used to deliver 10 μM (final concentration) of each drug to 384-well screening plates using a acoustic dispensing Echo 550 instrument equipped with Labcytes Access robotics (Labcyte).
(§1) The fluorometric microculture cytotoxicity assay (FMCA), described in detail previously (Lindhagen et al. [2008]), was used for measurement of the cytotoxic effect of library compounds and the established standard drugs. The FMCA is based on measurement of fluorescence generated from hydrolysis of fluorescein diacetate (FDA) to fluorescein by cells with intact plasma membranes. Cells were seeded in 384-well plates using the pipetting robot Precision 2000 (Bio-Tek Instruments Inc, Winooski, VT) and cultured over night before drugs were added by the Echo 550 system. […] Results are expressed as survival index (SI), defined as fluorescence of experimental wells in per cent of unexposed control wells with blank values subtracted.
Screening data were exported to Vortex (Dotmatics Inc, UK) software for analysis. […] Structural similarity to other compounds in the library was calculated based on a structural fingerprint consisting of chemical fragments located within the compound as computed by Vortex. […]

[2] = system: protein kinases including Bcr–Abl; set-up: method as in Park et al. [2012]; details: ref Park et al. [2012]; cited from earlier work
[3] = cited from earlier work
[4] = system: reactive oxygen species (ROS) generation; set-up: method as in Locatelli et al. [2004]; details: ref Locatelli et al. [2004]; cited from earlier work
panel of 97 kinases = assay: KINOMEscan binding assay, whole panel; details: for kinase binding: 10 µM, panel of 97 kinases; for Interactions Mapped / S-Score(35): 10 μM; for Interactions Mapped: 97 Assays Tested; for S-Score(35): number of non-mutant kinases with POC <35/number of non-mutant kinases tested
Experimental: (§2) The binding affinities of ABZ and MBZ were tested at 10 μM in a high-throughput binding assay (KINOMEscan, Discoverx, CA, USA) against a panel of 97 kinases tagged with DNA (Davis et al. [2011]). Compounds that bind the kinase active site and directly or indirectly prevent kinase binding to an immobilized ligand will reduce the amount of kinase captured on solid support. […] Hits are identified by measuring the amount of kinase captured in test versus control samples by using a quantitative PCR method that detects the associated DNA label (http://www.discoverx.com/tools-resources/publications-references). Results are presented as percent of control (POC). Selectivity score (S-score) is a quantitative measure of compound selectivity. S(35) is calculated as number of non-mutant kinases with POC <35/number of non-mutant kinases tested. Binding constants were determined with the same method using 11-point threefold serial dilutions of the compound. Curves were fitted using a nonlinear least square fit with the Levenberg–Marquardt algorithm (Davis et al. [2011]).

PDGFRB = target: T1, PDGFRB (Homo sapiens, UniProt P09619); assay: KINOMEscan binding assay
T1 construct: purchased Discoverx (KINOMEscan service)
T1 sequence (P09619 33-1106): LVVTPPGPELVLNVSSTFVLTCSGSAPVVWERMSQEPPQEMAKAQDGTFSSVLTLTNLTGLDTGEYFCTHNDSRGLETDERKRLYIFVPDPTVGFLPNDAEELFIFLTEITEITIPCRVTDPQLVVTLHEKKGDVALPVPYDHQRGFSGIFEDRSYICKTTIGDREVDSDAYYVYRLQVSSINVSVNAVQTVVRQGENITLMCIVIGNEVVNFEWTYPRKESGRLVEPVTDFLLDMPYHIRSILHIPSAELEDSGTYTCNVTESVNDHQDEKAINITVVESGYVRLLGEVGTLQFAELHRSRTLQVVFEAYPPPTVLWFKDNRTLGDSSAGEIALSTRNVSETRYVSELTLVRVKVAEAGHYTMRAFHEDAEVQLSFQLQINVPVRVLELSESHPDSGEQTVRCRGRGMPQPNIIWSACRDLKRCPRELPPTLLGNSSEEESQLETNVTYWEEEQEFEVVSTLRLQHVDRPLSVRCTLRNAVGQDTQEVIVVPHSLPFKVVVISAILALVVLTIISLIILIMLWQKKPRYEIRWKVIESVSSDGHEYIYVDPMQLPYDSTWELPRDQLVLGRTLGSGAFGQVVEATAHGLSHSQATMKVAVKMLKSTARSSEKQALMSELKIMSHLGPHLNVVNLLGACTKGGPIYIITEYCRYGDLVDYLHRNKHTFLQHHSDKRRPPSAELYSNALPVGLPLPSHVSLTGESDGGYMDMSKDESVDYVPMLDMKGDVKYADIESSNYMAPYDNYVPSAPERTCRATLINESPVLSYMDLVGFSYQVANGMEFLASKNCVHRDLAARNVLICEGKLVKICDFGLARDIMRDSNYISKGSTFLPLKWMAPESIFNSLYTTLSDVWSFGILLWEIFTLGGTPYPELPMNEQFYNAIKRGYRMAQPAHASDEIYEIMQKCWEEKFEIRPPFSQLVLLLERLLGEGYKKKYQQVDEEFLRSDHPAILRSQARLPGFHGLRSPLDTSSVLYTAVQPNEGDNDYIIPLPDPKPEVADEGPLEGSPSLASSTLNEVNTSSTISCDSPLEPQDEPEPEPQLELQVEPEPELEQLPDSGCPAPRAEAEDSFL
Experimental: as §2

BRAF = target: T2, BRAF (Homo sapiens, UniProt P15056); assay: KINOMEscan binding assay
T2 construct: purchased Discoverx (KINOMEscan service)
T2 sequence (P15056 whole entry): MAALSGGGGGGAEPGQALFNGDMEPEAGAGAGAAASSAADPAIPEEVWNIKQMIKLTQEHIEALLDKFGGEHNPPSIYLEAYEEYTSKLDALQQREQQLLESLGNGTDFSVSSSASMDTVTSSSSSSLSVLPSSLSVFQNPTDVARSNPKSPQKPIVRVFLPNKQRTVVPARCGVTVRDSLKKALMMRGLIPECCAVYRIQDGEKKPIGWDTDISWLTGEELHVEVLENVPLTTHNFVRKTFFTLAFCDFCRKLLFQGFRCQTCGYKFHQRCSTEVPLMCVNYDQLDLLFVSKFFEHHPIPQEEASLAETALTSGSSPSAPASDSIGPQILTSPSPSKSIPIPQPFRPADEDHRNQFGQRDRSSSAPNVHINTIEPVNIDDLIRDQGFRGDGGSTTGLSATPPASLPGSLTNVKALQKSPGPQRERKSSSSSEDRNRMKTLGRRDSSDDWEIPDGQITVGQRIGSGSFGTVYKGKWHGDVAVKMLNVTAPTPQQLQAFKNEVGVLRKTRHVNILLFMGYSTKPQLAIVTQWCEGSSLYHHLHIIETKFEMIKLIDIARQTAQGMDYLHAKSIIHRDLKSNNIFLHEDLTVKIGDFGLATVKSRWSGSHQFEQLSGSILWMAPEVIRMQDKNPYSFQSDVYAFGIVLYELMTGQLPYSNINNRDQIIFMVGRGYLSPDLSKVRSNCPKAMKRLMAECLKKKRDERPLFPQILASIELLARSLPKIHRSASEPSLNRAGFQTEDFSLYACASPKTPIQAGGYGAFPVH
Experimental: as §2

[5] = target: T3, ABL1(T315I) phosphorylated (Homo sapiens, UniProt P00519, T315I); assay: KINOMEscan binding assay
T3 construct: purchased Discoverx (KINOMEscan service)
Experimental: as §2

ABL1 nonphosphorylated = target: T4, ABL1 nonphosphorylated (Homo sapiens, UniProt P00519); assay: KINOMEscan binding assay
T4 construct: purchased Discoverx (KINOMEscan service)
Experimental: as §2

JNK3 = target: T5, JNK3 (Homo sapiens, UniProt P53779); assay: KINOMEscan binding assay
T5 construct: purchased Discoverx (KINOMEscan service)
T5 sequence (P53779 whole entry): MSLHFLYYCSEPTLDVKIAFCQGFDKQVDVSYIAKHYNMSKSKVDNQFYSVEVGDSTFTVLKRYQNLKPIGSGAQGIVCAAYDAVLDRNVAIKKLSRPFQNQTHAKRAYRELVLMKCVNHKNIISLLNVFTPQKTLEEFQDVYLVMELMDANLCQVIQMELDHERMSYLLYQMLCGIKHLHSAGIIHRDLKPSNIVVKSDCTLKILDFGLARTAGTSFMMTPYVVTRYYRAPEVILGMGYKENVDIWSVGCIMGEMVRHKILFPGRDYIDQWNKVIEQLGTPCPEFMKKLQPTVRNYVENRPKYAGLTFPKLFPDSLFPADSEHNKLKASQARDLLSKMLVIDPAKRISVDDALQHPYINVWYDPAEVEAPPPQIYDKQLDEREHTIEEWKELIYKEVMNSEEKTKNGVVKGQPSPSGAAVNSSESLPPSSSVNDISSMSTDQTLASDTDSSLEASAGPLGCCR
Experimental: as §2

ABL1 phosphorylated = target: T6, ABL1 phosphorylated (Homo sapiens, UniProt P00519); assay: KINOMEscan binding assay
T6 construct: purchased Discoverx (KINOMEscan service)
Experimental: as §2

KIT = target: T7, KIT (Homo sapiens, UniProt P10721); assay: KINOMEscan binding assay
T7 construct: purchased Discoverx (KINOMEscan service)
T7 sequence (P10721 26-976): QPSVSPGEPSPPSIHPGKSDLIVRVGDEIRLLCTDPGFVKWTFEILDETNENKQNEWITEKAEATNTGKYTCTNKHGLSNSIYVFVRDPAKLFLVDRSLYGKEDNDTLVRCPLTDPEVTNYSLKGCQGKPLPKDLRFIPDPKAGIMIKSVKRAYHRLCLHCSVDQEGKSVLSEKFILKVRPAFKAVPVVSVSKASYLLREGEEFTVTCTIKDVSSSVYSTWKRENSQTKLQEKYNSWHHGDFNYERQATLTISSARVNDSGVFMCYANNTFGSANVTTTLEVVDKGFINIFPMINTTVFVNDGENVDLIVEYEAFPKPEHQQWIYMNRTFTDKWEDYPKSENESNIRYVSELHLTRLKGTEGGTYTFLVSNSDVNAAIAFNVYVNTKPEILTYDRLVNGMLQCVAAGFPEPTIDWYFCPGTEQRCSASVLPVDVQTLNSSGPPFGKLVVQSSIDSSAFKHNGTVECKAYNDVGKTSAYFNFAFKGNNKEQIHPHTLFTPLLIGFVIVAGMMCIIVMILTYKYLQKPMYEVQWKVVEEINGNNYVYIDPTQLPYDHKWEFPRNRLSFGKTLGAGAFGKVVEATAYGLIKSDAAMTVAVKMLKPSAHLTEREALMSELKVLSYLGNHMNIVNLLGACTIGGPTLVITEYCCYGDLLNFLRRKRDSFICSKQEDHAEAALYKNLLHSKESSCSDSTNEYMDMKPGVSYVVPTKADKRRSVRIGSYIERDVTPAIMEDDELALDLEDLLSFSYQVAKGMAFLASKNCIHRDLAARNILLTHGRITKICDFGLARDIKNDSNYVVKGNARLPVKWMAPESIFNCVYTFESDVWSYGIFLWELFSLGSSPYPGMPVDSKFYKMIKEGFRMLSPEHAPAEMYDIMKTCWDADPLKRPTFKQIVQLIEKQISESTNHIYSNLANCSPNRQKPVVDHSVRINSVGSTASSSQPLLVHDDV
Experimental: as §2

[6] = target: T8, ABL1(E255K) phosphorylated (Homo sapiens, UniProt P00519, E255K); assay: KINOMEscan binding assay
T8 construct: purchased Discoverx (KINOMEscan service)
Experimental: as §2

BRAF(V600E) = target: T9, BRAF(V600E) (Homo sapiens, UniProt P15056, V600E); assay: KINOMEscan binding assay
T9 construct: purchased Discoverx (KINOMEscan service)
T9 sequence (P15056 whole entry V600E): as the sequence (P15056 whole entry) above, with V600E counted along it
Experimental: as §2

PDGFRA = target: T10, PDGFRA (Homo sapiens, UniProt P16234); assay: KINOMEscan binding assay
T10 construct: purchased Discoverx (KINOMEscan service)
T10 sequence (P16234 24-1089): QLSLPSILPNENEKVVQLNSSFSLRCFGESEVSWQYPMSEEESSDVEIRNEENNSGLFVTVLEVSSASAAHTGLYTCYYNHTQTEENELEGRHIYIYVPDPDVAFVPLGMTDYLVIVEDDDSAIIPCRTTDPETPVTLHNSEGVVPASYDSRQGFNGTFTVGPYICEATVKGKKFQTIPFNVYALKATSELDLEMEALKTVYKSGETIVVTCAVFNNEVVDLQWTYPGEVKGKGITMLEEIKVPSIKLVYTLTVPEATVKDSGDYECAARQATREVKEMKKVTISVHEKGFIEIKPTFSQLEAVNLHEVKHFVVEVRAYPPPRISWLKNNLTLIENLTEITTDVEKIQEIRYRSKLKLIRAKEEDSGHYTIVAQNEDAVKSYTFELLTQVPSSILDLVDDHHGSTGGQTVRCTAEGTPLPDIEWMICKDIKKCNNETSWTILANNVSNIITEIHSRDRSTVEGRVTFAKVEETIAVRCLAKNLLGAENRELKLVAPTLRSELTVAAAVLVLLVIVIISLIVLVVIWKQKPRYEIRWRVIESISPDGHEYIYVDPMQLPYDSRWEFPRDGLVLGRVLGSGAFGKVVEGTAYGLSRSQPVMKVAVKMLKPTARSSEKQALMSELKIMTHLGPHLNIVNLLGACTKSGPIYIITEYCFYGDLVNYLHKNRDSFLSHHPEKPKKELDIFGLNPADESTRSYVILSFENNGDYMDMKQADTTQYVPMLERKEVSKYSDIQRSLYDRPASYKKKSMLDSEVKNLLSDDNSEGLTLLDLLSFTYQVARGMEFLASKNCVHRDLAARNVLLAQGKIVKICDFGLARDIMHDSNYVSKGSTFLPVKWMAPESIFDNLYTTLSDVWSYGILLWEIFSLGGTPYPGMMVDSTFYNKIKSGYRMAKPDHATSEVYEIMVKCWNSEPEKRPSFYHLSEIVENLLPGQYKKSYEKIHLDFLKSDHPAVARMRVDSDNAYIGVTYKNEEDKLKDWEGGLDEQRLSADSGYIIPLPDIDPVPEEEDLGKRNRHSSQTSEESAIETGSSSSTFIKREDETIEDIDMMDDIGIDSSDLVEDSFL
Experimental: as §2

glioma = system: glioma; set-up: method as in Bai et al. [2011]; details: two orthotopic mouse models of glioma; ref Bai et al. [2011]; cited from earlier work
NCI 60 cell line panel [7] = assay: NCI 60 growth inhibitory screen data mining (Cellminer); format: cell-based
Experimental: Analysis of data from the National Cancer Institute growth inhibitory screen in 60 cell lines (NCI 60 GI 50 data) was performed with the help by the NCI Cellminer database (http://discover.nci.nih.gov/cellminer/). Z scores are determined for each experiment/cell line pair by the subtraction from its intensity by the experiment mean (across the 60 cell lines) and division by the standard deviation of the experiment (across the 60 cell lines). The z score average was then calculated as the mean across all experiments that passed quality control criteria. The z score will have a mean of zero and a standard deviation of one.

[8] = system: refractory metastatic colon cancer; set-up: method as in case report accepted for publication in Acta Oncologica; details: 100 mg twice daily, ref case report accepted for publication in Acta Oncologica, cited from earlier work
[9] = system: colon cancer cell lines (HCT 116, RKO, HT29, HT-8 and SW626); assay: FMCA concentration-response, colon cancer cell lines; format: cell-based; details: Homo sapiens; all 5 colon cancer cell lines; 72 h FMCA
Experimental: The colon cancer cell lines HT29, HT-8 and SW626 and the normal phenotype non-malignant epithelial MCF 10A, renal RPTEC/TERT1 and hepatocyte NeHepLxHT cell lines were used for validation experiments. These cell lines were all obtained from ATCC and cultured according to the protocols provided by the supplier. All the cell lines were cultured at 37 °C in a humidified atmosphere containing 5 % CO2.
For dose–response studies, Labcyte source plates and the Echo dispenser were used in a similar manner to deliver different concentrations of each drug to destination plates using on board software protocols (Labcyte).
as §1, with “membranes.” for “membranes. Cells were seeded in 384-well plates using the pipetting robot Precision 2000 (Bio-Tek Instruments Inc, Winooski, VT) and cultured over night before drugs were added by the Echo 550 system.”
Concentration–response data of screening hits and standard agents were analyzed using the software GraphPad Prism4 (GraphPad Software Inc., San Diego, CA, USA). […]

NCI 60 cell line panel [10] = system: NCI 60 cell line panel; set-up: method as in NCI Cellminer database; details: NCI 60 panel; ref NCI Cellminer database; read-out: average GI 50 over the panel; cited from earlier work
[11] = percent of control at 10 μM, read-out: POC (10 μM)

CCCOc1ccc2nc(NC(=O)OC)[nH]c2c1 [Oxibendazole, oxibendazole]
survival index (SI) [1]: lowest SIs

COC(=O)Nc1nc2ccc(Sc3ccccc3)cc2[nH]1 [fenbendazole]
survival index (SI) [1]: closely followed

COC(=O)Nc1nc2ccc(C(=O)c3cccs3)cc2[nH]1 [nocodazole]
protein kinase inhibition [2]: inhibit several protein kinases including Bcr–Abl

CCCSc1ccc2nc(NC(=O)OC)[nH]c2c1 [albendazole]
dose-limiting toxicity ([3]; dose-escalating phase-I trial, ref Pourgholami et al. [2010]): neutropenia | toxicity in clinical study ([3]; patients with advanced cancers, ref Morris et al. [2001]): neutropenia | ROS generation [4]: strong reactive oxygen species (ROS) generation | kinase binding (panel of 97 kinases): no kinase binding was observed | Interactions Mapped (panel of 97 kinases): 1 | S-Score(35) (panel of 97 kinases): 0 | survival index (SI) [1]: closely followed

COC(=O)Nc1nc2ccc(C(=O)c3ccccc3)cc2[nH]1 [mebendazole]
Kd (PDGFRB; average of two determinations): 560 nM | remaining binding at 10 µM (PDGFRB; [11]): 2.3% | Kd (BRAF; average of two determinations): 190 nM | remaining binding at 10 µM (BRAF; [11]): 13% | Kd ([5]; average of two determinations): 170 nM | remaining binding at 10 µM [5, 11]: 4.8% | Kd (ABL1 nonphosphorylated; average of two determinations): 550 nM | remaining binding at 10 µM (ABL1 nonphosphorylated; [11]): 2.4% | Kd (JNK3; average of two determinations): 420 nM | remaining binding at 10 µM (JNK3; [11]): 5.2% | Kd (ABL1 phosphorylated; average of two determinations): 130 nM | remaining binding at 10 µM (ABL1 phosphorylated; [11]): 0.95% | Kd (KIT; average of two determinations): 460 nM | remaining binding at 10 µM (KIT; [11]): 2.9% | Kd ([6]; average of two determinations): 78 nM | remaining binding at 10 µM [6, 11]: 0.3% | Kd (BRAF(V600E); average of two determinations): 250 nM | remaining binding at 10 µM (BRAF(V600E); [11]): 5.1% | Kd (PDGFRA; average of two determinations): 340 nM | remaining binding at 10 µM (PDGFRA; [11]): 15% | survival (glioma): significantly increase survival | frequency of sensitive cell lines (positive z scores) (NCI 60 cell line panel [7]; colon cancer cell lines of NCI 60): 80% | frequency of sensitive cell lines (positive z scores) (NCI 60 cell line panel [7]; lung cancer subpanel of NCI 60): 25% | frequency of sensitive cell lines (positive z scores) (NCI 60 cell line panel [7]; renal cancer subpanel of NCI 60): 28% | computerized tomography evaluation, liver ([8]; after six weeks of therapy): good partial remission | computerized tomography evaluation, metastases in the lungs and lymph nodes ([8]; after six weeks of therapy): near complete remission | adverse effects [8]: no subjective adverse effects at all | kinase binding (panel of 97 kinases): potent inhibitor of several kinases with high affinity | Interactions Mapped (panel of 97 kinases): 20 | S-Score(35) (panel of 97 kinases): 0.19 | IC50 [9]: < 5000 nM | GI50 (NCI 60 cell line panel [10]): 460 nM
